Data: US4812442A, “Tripeptide renin inhibitors” (priority 1987, dated 1989)
Where a name gives a salt, the structure may show the parent alone. Square brackets hold non-standard residues; d marks the D form. Peptide text beside a SMILES is read from it. * marks the point of attachment. Sta = CC(C)C[C@H](N)[C@@H](O)CC(=O)O; Isovaleryl = CC(C)CC(=O)*

test system: nephrectomized rats; experiment: not given; conditions: after the injection of hog renin into nephrectomized rats; cited from earlier work

Structure (SMILES)	effect on blood pressure in vivo
CC(C)CC(=O)N[C@H](C(=O)N[C@H](C(=O)N[C@@H](CC(C)C)[C@@H](O)CC(=O)N[C@@H](C)C(=O)N[C@@H](CC(C)C)[C@@H](O)CC(=O)O)C(C)C)C(C)C [pepstatin] (Isovaleryl-VV[Sta]A[Sta]-OH)	reduces blood pressure

target: T1, renin (Homo sapiens, UniProt P00797); experiment: Renin inhibition IC50 (methods of J. Med. Chem., 1985, 28, 1789-1790); type: biochemical; conditions: not given
T1 sequence (P00797 67-406): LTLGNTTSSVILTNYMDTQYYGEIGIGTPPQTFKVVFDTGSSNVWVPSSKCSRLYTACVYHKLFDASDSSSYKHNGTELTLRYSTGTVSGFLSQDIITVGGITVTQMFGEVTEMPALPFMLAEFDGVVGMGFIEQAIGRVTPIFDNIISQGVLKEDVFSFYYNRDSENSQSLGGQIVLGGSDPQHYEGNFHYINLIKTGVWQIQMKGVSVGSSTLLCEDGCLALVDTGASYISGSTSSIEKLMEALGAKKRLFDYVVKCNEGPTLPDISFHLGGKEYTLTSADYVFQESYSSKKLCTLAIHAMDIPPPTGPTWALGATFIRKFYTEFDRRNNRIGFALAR
Excerpt: The following examples are intended to be representative and not limiting. IC50 results were obtained according to the methods described in J. Med. Chem., 1985, 28, 1789-1790.

Structure (SMILES)	IC50 [nM]
CC(C)(C)OC(=O)N[C@@H](Cc1ccccc1)C(=O)N[C@@H](Cc1c[nH]cn1)C(=O)N[C@@H](CC1CCCCC1)[C@@H](O)CC(=O)NC1C[N+]2(C)CCC1CC2 (stereo partly drawn) [Example 2, N^α -t-butoxycarbonyl-L-phenylalanyl-L-histidyl-(3S,4S)-4-amino-5-cyclohexyl-3-hydroxy-pentanoyl-1-methylquinuclidium-3-yl amide acetate]	38
CC(C)(C)OC(=O)N[C@@H](Cc1ccccc1)C(=O)N[C@@H](Cc1c[nH]cn1)C(=O)N[C@@H](CC1CCCCC1)[C@@H](O)CC(=O)NC1C[N+]2(CCCCO)CCC1CC2 (stereo partly drawn) [Example 3, N^α -t-butoxycarbonyl-L-phenylalanyl-L-histidyl(3S,4S)-4-amino-5-cyclohexyl-3-hydroxypentanoyl-1-(4-hydroxybutyl)-quinuclidinium-3-yl amide acetate]	33

same assay, conditions: renin inhibition; read-out: IC50

IC50 [nM]	Structure (SMILES)
67	CC(C)(C)OC(=O)N[C@@H](Cc1ccccc1)C(=O)N[C@@H](Cc1c[nH]cn1)C(=O)N[C@@H](CC1CCCCC1)[C@@H](O)CC(=O)N1CC[S+]([O-])CC1 [Example 6, Boc-Phe-His-ACHPA-4-thiamorpholine-1-oxide]
55	CC(C)(C)OC(=O)N[C@@H](Cc1ccccc1)C(=O)N[C@@H](Cc1c[nH]cn1)C(=O)N[C@@H](CC1CCCCC1)[C@@H](O)CC(=O)N1CCS(=O)(=O)CC1 [Example 7, Boc-Phe-His-ACHPA-4-thiamorpholine-1,1-dioxide]
33	CC[C@H](C)[C@@H](CN)NC(=O)C[C@H](O)[C@H](CC1CCCCC1)NC(=O)[C@H](Cc1c[nH]cn1)NC(=O)[C@H](Cc1ccccc1)NC(=O)OC(C)(C)C [Example 11]
5	CC[C@H](C)[C@@H](CN(C)C)NC(=O)C[C@H](O)[C@H](CC1CCCCC1)NC(=O)[C@H](Cc1c[nH]cn1)NC(=O)[C@H](Cc1ccccc1)NC(=O)OC(C)(C)C [Example 12]
2000	CC(C)C[C@H](NC(=O)[C@H](Cc1ccccc1)NC(=O)[C@H](Cc1ccccc1)NC(=O)OC(C)(C)C)[C@@H](O)CC(=O)N1CCN(c2cccc[n+]2[O-])CC1 [Example 17]
15	CC[C@H](C)[C@@H](C[N+](C)(C)C)NC(=O)C[C@H](O)[C@H](CC1CCCCC1)NC(=O)[C@H](Cc1c[nH]cn1)NC(=O)[C@H](Cc1ccccc1)NC(=O)OC(C)(C)C [Example 18, di-acetate salt]
10	CC[C@H](C)[C@@H](C[N+](C)(C)CCO)NC(=O)C[C@H](O)[C@H](CC1CCCCC1)NC(=O)[C@H](Cc1c[nH]cn1)NC(=O)[C@H](Cc1ccccc1)NC(=O)OC(C)(C)C [Example 19, acetate salt]

Structure (SMILES)	IC50 [nM]
CC(C)(C)OC(=O)N[C@@H](Cc1ccccc1)C(=O)N[C@@H](Cc1c[nH]cn1)C(=O)N[C@@H](CC1CCCCC1)[C@@H](O)CC(=O)NC1CN2CCC1CC2 (stereo partly drawn) [Example 1, N^α -t-butoxycarbonyl-L-phenylalanyl-L-histidyl(3S,4S)-4-amino-5-cyclohexyl-3-hydroxypentanoyl-3-quinuclidinyl amide]	33
CC(C)(C)OC(=O)N[C@@H](Cc1ccccc1)C(=O)N[C@@H](Cc1c[nH]cn1)C(=O)N[C@@H](CC1CCCCC1)[C@@H](O)CC(=O)NC1C[N+]2([O-])CCC1CC2 (stereo partly drawn) [Example 4, N^α -t-butoxycarbonyl-L-phenylalanyl-L-histidyl-(3S,4S)-4-amino-5-cyclohexyl-3-hydroxypentanoyl-quinuclidinium-3-yl-1-oxide amide]	20
CC(C)(C)OC(=O)N[C@@H](Cc1ccccc1)C(=O)N[C@@H](Cc1c[nH]cn1)C(=O)N[C@@H](CC1CCCCC1)[C@@H](O)CC(=O)N1CCSCC1 [Example 5, Boc-Phe-His-ACHPA-4-thiamorpholine]	19
CC[C@H](C)NC(=O)C[C@H](O)[C@H](CC1CCCCC1)NC(=O)[C@H](Cc1c[nH]cn1)NC(=O)[C@H](Cc1ccccc1)NC(=O)OC(C)(C)C [Example 9, N^α -t-butoxycarbonyl-L-phenylalanyl-L-histidyl(3S,4S)-4-amino-5-cyclohexyl-3-hydroxypentanoyl-2S-(+)-butyl amide]	32
